According to US20240166652A1, “MODULATORS OF THE INTEGRATED STRESS PATHWAY” (Calico Life Sciences LLC, priority 2017, published 2024):

System: ATF4 luciferase reporter in HEK293T cells
Experiment: ATF4-Luc assay (ATF4 luciferase reporter, tunicamycin-treated HEK293T cells)
Format: cell-based, human
Conditions: Homo sapiens, HEK-293T; HEK293T cells carrying the ATF4 luciferase reporter, 1 μg/mL tunicamycin, 7 hours

Structure (SMILES)	EC50 [nM]
O=C(COc1ccc(F)c(F)c1)NC12CC(NC(=O)COc3ccc(Cl)c(Cl)c3)(C1)C2 [Compound 584, 2-(3,4-dichlorophenoxy)-N-{3-[2-(3,4-difluorophenoxy)acetamido]bicyclo[1.1.1]pentan-1-yl}acetamide]	< 10
O=C(COc1ccc(F)c(F)c1)NC12CCC(NC(=O)COc3ccc(Cl)c(F)c3)(CC1)[C@@H](O)C2 [Compound 586, 2-(4-chloro-3-fluorophenoxy)-N-{(2S)-4-[2-(3,4-difluorophenoxy)acetamido]-2-hydroxybicyclo[2.2.2]octan-1-yl}acetamide]	< 10
O=C(COc1ccc(Cl)c(F)c1)NC12CCC(NC(=O)COc3ccc(F)c(F)c3)(CC1)[C@@H](O)C2 [Compound 587, 2-(4-chloro-3-fluorophenoxy)-N-{(3S)-4-[2-(3,4-difluorophenoxy)acetamido]-3-hydroxybicyclo[2.2.2]octan-1-yl}acetamide]	< 10
O=C(COc1ccc(F)c(Cl)c1)NC12CCC(NC(=O)COc3ccc(F)c(Cl)c3)(CC1)[C@@H](O)C2 [Compound 588, N,N′-[(2S)-2-hydroxybicyclo[2.2.2]octane-1,4-diyl]bis[2-(3-chloro-4-fluorophenoxy)acetamide]]	< 10
O=C(COc1ccc(C(F)(F)F)nc1)NC12CCC(NC(=O)COc3ccc(Cl)c(F)c3)(CC1)[C@@H](O)C2 [Compound 589, 2-(4-chloro-3-fluorophenoxy)-N-[(2S)-2-hydroxy-4-(2-{[6-(trifluoromethyl)pyridin-3-yl]oxy}acetamido)bicyclo[2.2.2]octan-1-yl]acetamide]	< 10
O=C(COc1ccc(F)c(F)c1)NC12CC(NC(=O)COc3ccc(F)c(Cl)c3)(C1)C2 [Compound 590, 2-(3-chloro-4-fluorophenoxy)-N-{3-[2-(3,4-difluorophenoxy)acetamido]bicyclo[1.1.1]pentan-1-yl}acetamide]	< 10
O=C(COc1ccc(F)c(Cl)c1)NC12CC(NC(=O)COc3ccc4c(c3)OC(F)(F)O4)(C1)C2 [Compound 591, 2-(3-chloro-4-fluorophenoxy)-N-(3-{2-[(2,2-difluoro-2H-1,3-benzodioxol-5-yl)oxy]acetamido}bicyclo[1.1.1]pentan-1-yl)acetamide]	< 10
O=C(COc1ccc(Cl)c(CO)c1)NC12CCC(NC(=O)COc3ccc(Cl)c(CO)c3)(CC1)[C@@H](O)C2 [Compound 592, N,N′-[(2S)-2-hydroxybicyclo[2.2.2]octane-1,4-diyl]bis{2-[4-chloro-3-(hydroxymethyl)phenoxy]acetamide}]	500 to 2000
O=C(COc1ccc(Cl)c(C(=O)O)c1)NC12CCC(NC(=O)COc3ccc(Cl)c(C(=O)O)c3)(CC1)[C@@H](O)C2 [Compound 593, 3,3′-{[(2S)-2-hydroxybicyclo[2.2.2]octane-1,4-diyl]bis[azanediyl(2-oxoethane-2,1-diyl)oxy]}bis(6-chlorobenzoic acid)]	> 2000
COC(=O)c1cc(OCC(=O)NC23CCC(NC(=O)COc4ccc(Cl)c(C(=O)OC)c4)(CC2)[C@@H](O)C3)ccc1Cl [Compound 594, dimethyl 3,3′-{[(2S)-2-hydroxybicyclo[2.2.2]octane-1,4-diyl]bis[azanediyl(2-oxoethane-2,1-diyl)oxy]}bis(6-chlorobenzoate)]	> 2000
O=C(COc1ccc(Cl)c(F)c1)N[C@@H]1C[C@H]2CC[C@@H](C1)[C@H]2NC(=O)COc1ccc(Cl)c(F)c1 [Compound 595, N,N′-[(1R,3s,5S,8r)-bicyclo[3.2.1]octane-3,8-diyl]bis[2-(4-chloro-3-fluorophenoxy)acetamide]]	> 2000
O=C(COc1ccc(Cl)c(F)c1)NC12CCC(NC(=O)COc3ccc(F)c(Cl)c3)(CC1)[C@@H](O)C2 [Compound 596, 2-(4-chloro-3-fluorophenoxy)-N-{(3S)-4-[2-(3-chloro-4-fluorophenoxy)acetamido]-3-hydroxybicyclo[2.2.2]octan-1-yl}acetamide]	< 10
COC(=O)c1cc(OCC(=O)NC23CCC(NC(=O)COc4ccc(Cl)c(F)c4)(CC2)[C@@H](O)C3)ccc1Cl [Compound 597, methyl 2-chloro-5-[2-({(3S)-4-[2-(4-chloro-3-fluorophenoxy)acetamido]-3-hydroxybicyclo[2.2.2]octan-1-yl}amino)-2-oxoethoxy]benzoate]	10 to 50
O=C(COc1ccc(Cl)c(CO)c1)NC12CCC(NC(=O)COc3ccc(Cl)c(F)c3)(CC1)[C@@H](O)C2 [Compound 598, 2-(4-chloro-3-fluorophenoxy)-N-[(2S)-4-{2-[4-chloro-3-(hydroxymethyl)phenoxy]acetamido}-2-hydroxybicyclo[2.2.2]octan-1-yl]acetamide]	< 10
CN1C(=O)C2(NC(=O)COc3ccc(Cl)c(Cl)c3)CCC1(NC(=O)COc1ccc(Cl)c(Cl)c1)CC2 [Compound 599, N,N-(2-methyl-3-oxo-2-azabicyclo[2.2.2]octane-1,4-diyl)bis[2-(3,4-dicholorophenoxy)acetamide]]	10 to 50
O=C(COc1ccc(Cl)c(Cl)c1)NC12CCC(NC(=O)COc3ccc(Cl)c(Cl)c3)(CC1)C(=O)N2 [Compound 600, N,N′-(3-oxo-2-azabicyclo[2.2.2]octane-1,4-diyl)bis[2-(3,4-dichlorophenoxy)acetamide]]	< 10

Structure (SMILES)	EC50 [nM]
O=C(COc1ccc(Cl)c(F)c1)NC12CCC(NC(=O)COc3ccc(Cl)c(Cl)c3)(CC1)C(=O)N2 [Compound 601, 2-(4-chloro-3-fluorophenoxy)-N-{4-[2-(3,4-dichlorophenoxy)acetamido]-3-oxo-2-azabicyclo[2.2.2]octan-1-yl}acetamide]	< 10
O=C(COc1ccc(Cl)c(Cl)c1)NC12CCC(NC(=O)COc3ccc(Cl)c(F)c3)(CC1)C(=O)N2 [Compound 602, 2-(4-chloro-3-fluorophenoxy)-N-{1-[2-(3,4-dichlorophenoxy)acetamido]-3-oxo-2-azabicyclo[2.2.2]octan-4-yl}acetamide]	< 10
O=C(COc1ccc(Cl)c(F)c1)NC12CCC(NC(=O)COc3ccc(Cl)c(F)c3)(CC1)C(=O)N2 [Compound 603, N,N′-(3-oxo-2-azabicyclo[2.2.2]octane-1,4-diyl)bis[2-(4-chloro-3-fluorophenoxy)acetamide]]	< 10
O=C(COc1ccc2c(c1)OC(F)(F)O2)NC12CCC(NC(=O)COc3ccc(Cl)c(Cl)c3)(CC1)C(=O)N2 [Compound 604, 2-(3,4-dichlorophenoxy)-N-(1-{2-[(2,2-difluoro-2H-1,3-benzodioxol-5-yl)oxy]acetamido}-3-oxo-2-azabicyclo[2.2.2]octan-4-yl)acetamide]	10 to 50
CN1C(=O)C2(NC(=O)COc3ccc(Cl)c(F)c3)CCC1(NC(=O)COc1ccc(Cl)c(F)c1)CC2 [Compound 605, N,N′-(2-methyl-3-oxo-2-azabicyclo[2.2.2]octane-1,4-diyl)bis[2-(4-chloro-3-fluorophenoxy)acetamide]]	50 to 250
O=C(Cc1ccc(Cl)cn1)NC12CCC(NC(=O)COc3ccc(Cl)c(F)c3)(CC1)[C@@H](O)C2 [Compound 606, 2-(4-chloro-3-fluorophenoxy)-N-{(2S)-4-[2-(5-chloropyridin-2-yl)acetamido]-2-hydroxybicyclo[2.2.2]octan-1-yl}acetamide]	50 to 250
O=C(COc1cccnc1)NC12CCC(NC(=O)COc3ccc(Cl)c(F)c3)(CC1)[C@@H](O)C2 [Compound 607, 2-(4-chloro-3-fluorophenoxy)-N-[(2S)-2-hydroxy-4-{2-[(pyridin-3-yl)oxy]acetamido}bicyclo[2.2.2]octan-1-yl]acetamide]	50 to 250
O=C(Cc1ccc(Cl)c(F)c1)NC12CCC(NC(=O)COc3ccc(Cl)c(F)c3)(CC1)[C@@H](O)C2 [Compound 608, 2-(4-chloro-3-fluorophenoxy)-N-{(2S)-4-[2-(4-chloro-3-fluorophenyl)acetamido]-2-hydroxybicyclo[2.2.2]octan-1-yl}acetamide]	50 to 250
O=C(COc1ccc(Cl)c(F)c1)NC12CC(NC(=O)CN(CCO)c3ccc(Cl)cc3)(C1)C2 [Compound 609, 2-(4-chloro-3-fluorophenoxy)-N-(3-{2-[(4-chlorophenyl)(2-hydroxyethyl)amino]acetamido}bicyclo[1.1.1]pentan-1-yl)acetamide]	> 2000
CCc1cc(COCC23CC(NC(=O)COc4ccc(Cl)c(F)c4)(C2)C3)on1 [Compound 610, 2-(4-chloro-3-fluorophenoxy)-N-(3-{[(3-ethyl-1,2-oxazol-5-yl)methoxy]methyl}bicyclo[1.1.1]pentan-1-yl)acetamide]	> 2000
O=C(COc1ccc(Cl)c(F)c1)NC12CCC(OCCc3ccc(Cl)cc3)(CC1)CC2O (centres unmarked) [Compound 611, 2-(4-chloro-3-fluorophenoxy)-N-{4-[2-(4-chlorophenyl)ethoxy]-2-hydroxybicyclo[2.2.2]octan-1-yl}acetamide]	10 to 50
O=C(COc1ccc(Cl)c(F)c1)NC12CC(COc3ccccc3)(C1)C2 [Compound 612, 2-(4-chloro-3-fluorophenoxy)-N-[3-(phenoxymethyl)bicyclo[1.1.1]pentan-1-yl]acetamide]	> 2000
O=C(COc1ccc(Cl)c(F)c1)NC12CC(COc3ccc(C(F)F)cn3)(C1)C2 [Compound 613, 2-(4-chloro-3-fluorophenoxy)-N-[3-({[5-(difluoromethyl)pyridin-2-yl]oxy}methyl)bicyclo[1.1.1]pentan-1-yl]acetamide]	500 to 2000
O=C(COc1ccc(Cl)cc1)NC12CCC(NC(=O)COc3ccc(F)cc3)(CC1)[C@@H](O)C2 [Compound 614, 2-(4-chlorophenoxy)-N-{(3S)-4-[2-(4-fluorophenoxy)acetamido]-3-hydroxybicyclo[2.2.2]octan-1-yl}acetamide]	< 10
O=C(COc1ccc(F)c(F)c1)NC12CCC(NC(=O)COc3ccc(F)c(F)c3)(CC1)[C@@H](O)C2 [Compound 615, N,N′-[(2S)-2-hydroxybicyclo[2.2.2]octane-1,4-diyl]bis[2-(3,4-difluorophenoxy)acetamide]]	< 10
O=C(COc1ccc(F)cc1)NC12CCC(NC(=O)COc3ccc(Cl)cc3)(CC1)[C@@H](O)C2 [Compound 616, 2-(4-chlorophenoxy)-N-{(2S)-4-[2-(4-fluorophenoxy)acetamido]-2-hydroxybicyclo[2.2.2]octan-1-yl}acetamide]	< 10
